Data on 13 compounds can be found in patent US20250332173A1, “COMPOUNDS AND METHODS FOR MODULATING NUCLEIC ACID SPLICING” (REMIX THERAPEUTICS INC., priority 2021, published 2025).

Type in all cases: cell-based, human
Assay [1] deals with Target C. Description: HiBiT protein abundance assay, Target C (Promega Nano-Glo HiBiT Lytic Detection System, knock-in K562 cell line). The note with it: Homo sapiens, K562, 24 h, HiBiT K562 cell line, 24 hours, top dose 10 μM; read-out: Effect on protein abundance, Target C (IC50 category). The essentials:
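Knock-in K562 cells carrying HiBiT-tagged Target C, 10,000 per well, treated 24 h at 37 °C with 10-point threefold dilutions (top 10 μM final, ≤0.25% DMSO). Lytic HiBiT luminescence read; response normalised to unmodified K562 and DMSO controls, four-parameter fit interpolated at 50% for IC50.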
Background: The HiBiT peptide binds its large partner to form an active luciferase.

For assay [2], the system named is Target C. Description: RT-qPCR splicing assay panel, Target C canonical junction (CJ) mRNA. The settings on record: Homo sapiens; Table 5 panel; canonical junction qPCR; compound concentration having 50% response in CJ decrease; read-out: Target C IC50 (decrease in CJ mRNA levels). In outline: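 Cells are plated (A673 allowed 24 h to adhere), dosed with an 11-point 3-fold series topping at 10 uM final, and incubated 24 h at 37 °C. Lysis is followed by cDNA synthesis and qPCR of the CJ transcript, normalized to a housekeeping gene.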

The next assay deals with MYB. Description: HiBiT protein abundance assay, MYB HiBiT K562 cell line. The note with it: HiBiT K562 cell line, 24 hours, top dose 10 μM; read-out: Effect on protein abundance, MYB (IC50 category). The essentials:
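K562 knock-in lines with endogenous HiBiT-tagged target, 10,000 cells/well in IMDM + FBS, treated 24 h at 37° C with 10-point 3-fold dilutions (top 10 μM final; DMSO ≤0.25%). Lytic Nano-Glo HiBiT luminescence normalized to untagged K562 baseline and DMSO controls; IC50 = concentration giving 50% abundance via four-parameter fit.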

Some results are limits rather than exact numbers.

As for `Cc1cn2cc(-c3cc(F)c4c(=O)n([C@@H]5CCNC5)ccc4c3)cc(F)c2n1` (single isomer, unassigned) [Compound 395], the IC50 with Target C [1] is 1000 to 10000 nM; with Target C [2] it was above 10000 nM; with MYB, 100 to 1000 nM.

With `Cc1cn2cc(-c3cc(F)c4c(=O)n([C@H]5CCNC5)ccc4c3)cc(F)c2n1` (single isomer, unassigned) [Compound 396], the IC50 is 100 to 1000 nM with Target C [1], above 10000 nM in the assay on Target C [2] and 100 to 1000 nM with MYB.

Consider `Cc1cn2cc(-c3ccc4c(=O)n([C@@H]5CCCNC5)ccc4c3)cc(F)c2n1` (single isomer, unassigned) [Compound 403], for which the values for the IC50 with Target C [1], with Target C [2] and in the assay on MYB were 1000 to 10000 nM, 1000 to 10000 nM and 100 to 1000 nM, respectively.

Regarding `Cc1cn2nc(-c3cc(F)c4c(=O)n([C@@H]5CCNC6(CC6)C5)ccc4c3)cc(C)c2n1` (single isomer, unassigned) [Compound 425], the IC50 in the assay on Target C [1], in the assay on Target C [2] and in the assay with MYB was below 100 nM throughout.

For the compound `Cc1cn2nc(-c3cc(F)c4c(=O)n([C@H]5CCNC6(CC6)C5)ccc4c3)cc(C)c2n1` (single isomer, unassigned) [Compound 426], the IC50 in the assay on Target C [1], in the assay with Target C [2] and in the assay on MYB was below 100 nM throughout.

Regarding `Cc1cn2nc(-c3ccc4c(=O)n([C@@H]5CCNC6(CC6)C5)ncc4c3)cc(C)c2n1` (stereo in doubt) [Compound 368, 2-[(7R)-4-azaspiro[2.5]octan-7-yl]-6-{2,8-dimethylimidazo[1,2-b]pyridazin-6-yl}phthalazin-1-one], the IC50 was below 100 nM in the assay with Target C [1], 100 to 1000 nM with Target C [2] and below 100 nM with MYB.

As for `Cc1cn2nc(-c3cc(F)c4c(=O)n(C5CCNC5)ccc4c3)cc(C)c2n1` (stereo in doubt) [Compound 382, (R)-6-(2,8-dimethylimidazo[1,2-b]pyridazin-6-yl)-8-fluoro-2-(pyrrolidin-3-yl)isoquinolin-1(2H)-one], the IC50 is 1000 to 10000 nM with Target C [1], above 10000 nM in the assay on Target C [2] and 100 to 1000 nM in the assay on MYB.

As to `Cc1cn2nc(-c3cc(F)c4c(=O)n(C5CCNC5)ccc4c3)cc(C)c2n1` (stereo in doubt) [Compound 392, (S)-6-(2,8-dimethylimidazo[1,2-b]pyridazin-6-yl)-8-fluoro-2-(pyrrolidin-3-yl)isoquinolin-1(2H)-one], the IC50 in the assay on Target C [1] was in the range of 1000 to 10000 nM; in the assay with Target C [2], 1000 to 10000 nM; in the assay with MYB, 100 to 1000 nM.

In the case of `Cc1cn2nc(-c3cc(C)c4c(=O)n(C5CCNC6(CC6)C5)ccc4c3)cc(C)c2n1` (stereo in doubt) [Compound 397, (S)-6-(2,8-dimethylimidazo[1,2-b]pyridazin-6-yl)-8-methyl-2-(4-azaspiro[2.5]octan-7-yl)isoquinolin-1(2H)-one], the IC50 is below 100 nM with Target C [1], 100 to 1000 nM in the assay on Target C [2] and below 100 nM in the assay on MYB.

Turning to `Cc1cn2nc(-c3cc(C)c4c(=O)n(C5CCNC6(CC6)C5)ccc4c3)cc(C)c2n1` (stereo in doubt) [Compound 398, (R)-6-(2,8-dimethylimidazo[1,2-b]pyridazin-6-yl)-8-methyl-2-(4-azaspiro[2.5]octan-7-yl)isoquinolin-1(2H)-one], the IC50 with Target C [1], in the assay with Target C [2] and with MYB was below 100 nM throughout.

Take `Cn1cc2cc(-n3cnc4cc(NC5CCNCC5)ccc4c3=O)ccc2n1` [Compound 162]: the IC50 with Target C [1] and in the assay on MYB was above 10000 nM in each case.

As to `Cc1cc(-c2ccc3c(=O)n(C4CCN(C)CC4)cnc3n2)cc2cn(C)nc12` [Compound 173], the IC50 in the assay on Target C [1] and in the assay on MYB was above 10000 nM in each case.

`Cc1cc(-c2ccc3c(=O)n(C4CCNCC4)cnc3c2)cc2cn(C)nc12` [Compound 174]: the IC50 was 100 to 1000 nM in the assay with Target C [1] and below 100 nM in the assay on MYB.

For orientation: IC50 means the concentration that inhibits the measured activity by half.
